# Results: patent publication US20120058541A1, “ENGINEERING RESISTANCE TO ALIPHATIC ALCOHOLS” (BUTAMAX(TM) ADVANCED BIOFUELS LLC, priority 2009, published 2012)
# System: L. plantarum PN0512
# Description: IC50 values were determined in shake flasks as follows. Duplicate glass test tubes containing 5 ml MRS medium plus 10 μg/ml chloramphenicol (MRS-Cm) were each inoculated with a single colony and grown for 24 h at 30° C. in a rollerdrum. 500 μl of each of these cultures were used to inoculate 25 ml MRS-Cm, which was grown for 16 h at 30° C. with shaking at 110 rpm. […] Cultures were grown at 30° C. with shaking at 110 rpm, and growth was measured by monitoring OD600. OD600 values that were clearly off the growth curve were discarded (less than 1% of values were discarded).
# This is mathematically equivalent to drawing a line between (C1,I1) and (C2,I2) and finding the concentration at which that line intersects I=50%. An IC50 was calculated for each set of flasks inoculated from the same preculture. An average IC50 was also calculated.
smiles,measurement,value
"CCCCO [Strain 1-butanol, 1-butanol]",1-butanol IC90,2.3%
